Laboratory results taken from US12109204B2, “Methods for treating muscular dystrophies” (The Regents of the University of California, priority 2018, dated 2024).

Test system: SSPN protein
Assay: SSPN protein immunoblot in C2C12 wild-type myotubes
Format: cell-based, murine
Conditions: C2C12 cells, 1 μM-10 μM, 48 hours, immunoblot normalized to GAPDH (FIG. 10e)
Protocol: Cells were treated for 48 hours beginning at day 2 of differentiation with DMSO (vehicle control, ATCC), felodipine (Sigma), nilvadipine (Sigma), alloxazine (Sigma), GW5074 (Sigma), methylthioadenosine (Santa Cruz Biotechnology), or ezutromid (Cayman Chemicals) diluted in cell type specific differentiation media at doses listed in the figures. For gene expression studies, each treatment was performed in duplicate. For protein studies, each treatment was performed with single or double replicates. C2C12 murine myotubes treated for 48 hours were lysed using RIPA buffer (Thermo Fisher Scientific) containing a protease inhibitor cocktail (0.6 μg/ml pepstatin A, 0.5 μg/ml aprotinin, 0.5 μg/ml leupeptin, 0.1 mM PMSF, 0.75 mM benzamidine, 5 μM calpain I inhibitor, 5 μM calpeptin). […] The supernatant was collected, quantified for protein concentration using the DC protein assay (Bio-Rad), and normalized to 2 mg/ml in water and Laemmli sample buffer with a final concentration of 10% glycerol (Sigma-Aldrich), 5% beta-mercaptoethanol (Sigma-Aldrich), 3% sodium dodecyl sulfate (Sigma-Aldrich), and 0.05% bromophenol blue (Sigma-Aldrich). […] Autoradiography films were developed using a SRX-101A tabletop processor (Konica Minolta), scanned to a digital file, and analyzed by densitometry of bands using ImageJ version 1.51s. […]

`CCOC(=O)C1=C(C)NC(C)=C(C(=O)OC)C1c1cccc(Cl)c1Cl` (centres unmarked) [Felodipine, 5-O-ethyl 3-O-methyl 4-(2,3-dichlorophenyl)-2,6-dimethyl-1,4-dihydropyridine-3,5-dicarboxylate] was tested, and the SSPN protein levels was “increases sarcospan protein levels” and the SSPN protein levels (listed as felodipine) was “increase in SSPN protein levels”.
